This note sets out measurements from patent publication US10358436B2, “Kinase inhibitors and method of treating cancer” (University Health Network, priority 2010, dated 2019).

Where a name gives a salt, the structure may show the parent alone. Bounds are passed on as bounds.

The target in the assay is Aurora A (Homo sapiens (Human), UniProt O14965). As to the kind of experiment: Aurora A inhibition assay (Z-Lyte). Type of assay: biochemical.
Sequence of Aurora A (O14965 whole entry): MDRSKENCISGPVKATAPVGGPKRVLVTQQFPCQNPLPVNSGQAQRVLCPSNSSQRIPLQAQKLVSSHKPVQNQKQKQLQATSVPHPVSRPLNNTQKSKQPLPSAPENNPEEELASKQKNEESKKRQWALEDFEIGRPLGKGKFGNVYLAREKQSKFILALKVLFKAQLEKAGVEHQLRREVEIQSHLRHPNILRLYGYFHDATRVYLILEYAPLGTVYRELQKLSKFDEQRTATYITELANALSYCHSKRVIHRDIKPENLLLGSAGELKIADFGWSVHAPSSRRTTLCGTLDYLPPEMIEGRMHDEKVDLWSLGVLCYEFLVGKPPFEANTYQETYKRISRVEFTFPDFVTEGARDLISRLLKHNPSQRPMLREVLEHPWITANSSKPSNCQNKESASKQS
One may read the inhibition as the percentage by which the read-out fell short of the control. Higher therefore signals a strong effect. In turn, `CN(C)Cc1ccc(/C=C/c2n[nH]c3cc([C@@H]4C[C@@]45C(=O)N(C)c4ccccc45)ccc23)cc1` [Example A109, (1R,2S)-(E)-2-(3-(4-((dimethylamino)methyl)styryl)-1H-indazol-6-yl)-1′-methylspiro[cyclopropane-1,3′-indolin]-2′-one 2,2,2-trifluoroacetate] returned an inhibition at 1 µM of more than 50%.

In turn, `CN1CCN(c2ccc(/C=C/c3n[nH]c4cc([C@@H]5C[C@@]56C(=O)N(C)c5ccccc56)ccc34)cn2)CC1` [Example A110, (1R,2S)-1′-methyl-2-(3-((E)-2-(6-(4-methylpiperazin-1-yl)pyridin-3-yl)vinyl)-1H-indazol-6-yl)spiro[cyclopropane-1,3′-indolin]-2′-one bis(2,2,2-trifluoroacetate)] yielded an inhibition at 1 µM of more than 50%.

For `COc1ccc2c(c1)[C@]1(C[C@H]1c1ccc3c(/C=C/c4ccncc4)n[nH]c3c1)C(=O)N2` [Example A111, (1R,2S)-5′-methoxy-2-(3-((E)-2-(pyridin-4-yl)vinyl)-1H-indazol-6-yl)spiro[cyclopropane-1,3′-indolin]-2′-one 2,2,2-trifluoroacetate], the inhibition at 1 µM is more than 50%.

With `COc1ccc2c(c1)[C@]1(C[C@H]1c1ccc3c(/C=C/c4ccc(CN5CC[C@@H](F)C5)cc4)n[nH]c3c1)C(=O)N2` [Example A112, (1R,2S)-(E)-2-(3-(4-(((R)-3-fluoropyrrolidin-1-yl)methyl)styryl)-1H-indazol-6-yl)-5′-methoxyspiro[cyclopropane-1,3′-indolin]-2′-one 2,2,2-trifluoroacetate], the inhibition at 1 µM is more than 50%.

In turn, `O=C1Nc2ccccc2[C@]12C[C@H]2c1ccc2c(/C=C/c3ccc4c(c3)CNCCO4)n[nH]c2c1` [Example A113, (1R,2S)-2-(3-((E)-2-(2,3,4,5-tetrahydrobenzo[f][1,4]oxazepin-7-yl)vinyl)-1H-indazol-6-yl)spiro[cyclopropane-1,3′-indolin]-2′-one 2,2,2-trifluoroacetate] registered an inhibition at 1 µM of more than 50%.

The molecule `CN1C(=O)[C@@]2(C[C@H]2c2ccc3c(/C=C/c4ccc(CN5CCCC5)cc4)n[nH]c3c2)c2ccccc21` [Example A115, (1R,2S)-(E)-1′-methyl-2-(3-(4-(pyrrolidin-1-ylmethyl)styryl)-1H-indazol-6-yl)spiro[cyclopropane-1,3′-indolin]-2′-one 2,2,2-trifluoroacetate] showed an inhibition at 1 µM of less than 50%.

As to `O=C1Nc2ccccc2[C@]12C[C@H]2c1ccc2c(/C=C/c3cc(F)c(CN4CCOCC4)c(F)c3)n[nH]c2c1` [Example A116, (1R,2S)-(E)-2-(3-(3,5-difluoro-4-(morpholinomethyl)styryl)-1H-indazol-6-yl)spiro[cyclopropane-1,3′-indolin]-2′-one 2,2,2-trifluoroacetate], the inhibition at 1 µM was more than 50%.

The molecule `COc1ccc2c(c1)[C@]1(C[C@H]1c1ccc3c(-c4ccc(N5CCC(N(C)C)CC5)cc4)n[nH]c3c1)C(=O)N2` [Example A120, (1R,2S)-2-(3-(4-(4-(dimethylamino)piperidin-1-yl)phenyl)-1H-indazol-6-yl)-5′-methoxyspiro[cyclopropane-1,3′-indolin]-2′-one 2,2,2-trifluoroacetate] registered an inhibition at 1 µM of less than 50%.

`COc1ccc2c(c1)[C@]1(C[C@H]1c1ccc3c(-c4ccc(N5CCC(N6CCOCC6)CC5)cc4)n[nH]c3c1)C(=O)N2` [Example A121, (1R,2S)-5′-methoxy-2-(3-(4-(4-morpholinopiperidin-1-yl)phenyl)-1H-indazol-6-yl)spiro[cyclopropane-1,3′-indolin]-2′-one 2,2,2-trifluoroacetate] displayed an inhibition at 1 µM of less than 50%.

Turning to `COc1ccc2c(c1)[C@]1(C[C@H]1c1ccc3c(-c4ccc(C5CCN(C)CC5)cc4)n[nH]c3c1)C(=O)N2` [Example A123, (1R,2S)-5′-methoxy-2-(3-(4-(1-methylpiperidin-4-yl)phenyl)-1H-indazol-6-yl)spiro[cyclopropane-1,3′-indolin]-2′-one hydrochloride], the inhibition at 1 µM is less than 50%.

On to `COc1ccc2c(c1)[C@]1(C[C@H]1c1ccc3c(-c4ccc(N5C[C@@H](C)N[C@@H](C)C5)cc4)n[nH]c3c1)C(=O)N2` [Example A126, (1R,2S)-2-(3-(4-(cis-3,5-dimethylpiperazin-1-yl)phenyl)-1H-indazol-6-yl)-5′-methoxyspiro[cyclopropane-1,3′-indolin]-2′-one 2,2,2-trifluoroacetate], for which the inhibition at 1 µM is less than 50%.

Molecule `COc1ccc2c(c1)[C@]1(C[C@H]1c1ccc3c(-c4ccc(N5CC[C@@H](N(C)C)C5)cc4)n[nH]c3c1)C(=O)N2` [Example A127, (1R,2S)-2-(3-(4-((R)-3-(dimethylamino)pyrrolidin-1-yl)phenyl)-1H-indazol-6-yl)-5′-methoxyspiro[cyclopropane-1,3′-indolin]-2′-one 2,2,2-trifluoroacetate] registered an inhibition at 1 µM of more than 50%.

Consider `COc1ccc2c(c1)[C@]1(C[C@H]1c1ccc3c(-c4ccc(N(C)CCN(C)C)cc4)n[nH]c3c1)C(=O)N2` [Example A129, (1R,2S)-2-(3-(4-((2-(dimethylamino)ethyl)(methyl)amino)phenyl)-1H-indazol-6-yl)-5′-methoxyspiro[cyclopropane-1,3′-indolin]-2′-one 2,2,2-trifluoroacetate], for which the inhibition at 1 µM was less than 50%.

`COCCN1C(=O)[C@@]2(C[C@H]2c2ccc3c(/C=C/c4ccc(CN(C)C)cc4)n[nH]c3c2)c2ccccc21` [Example A131, (1R,2S)-(E)-2-(3-(4-((dimethylamino)methyl)styryl)-1H-indazol-6-yl)-1′-(2-methoxyethyl)spiro[cyclopropane-1,3′-indolin]-2′-one 2,2,2-trifluoroacetate]: the inhibition at 1 µM was more than 50%.

As for `CCN(CC)Cc1c(F)cc(/C=C/c2n[nH]c3cc([C@@H]4C[C@@]45C(=O)Nc4ccc(OC)cc45)ccc23)cc1F` [Example A146, (1R,2S)-(E)-2-(3-(4-((diethylamino)methyl)-3,5-difluorostyryl)-1H-indazol-6-yl)-5′-methoxyspiro[cyclopropane-1,3′-indolin]-2′-one 2,2,2-trifluoroacetate], the inhibition at 1 µM is less than 50%.

Turning to `Cc1ccc(/C=C/c2n[nH]c3cc([C@@H]4C[C@@]45C(=O)Nc4ccccc45)ccc23)cn1` [Example A150, (1R,2S)-2-(3-((E)-2-(6-methylpyridin-3-yl)vinyl)-1H-indazol-6-yl)spiro[cyclopropane-1,3′-indolin]-2′-one], the inhibition at 1 µM was more than 50%.

As to `COc1ccc2c(c1)[C@]1(C[C@H]1c1ccc3c(/C=C/c4ccc(N5CCN(C)CC5)cc4)n[nH]c3c1)C(=O)N2` [Example A175, (1R,2S)-(E)-5′-methoxy-2-(3-(4-(4-methylpiperazin-1-yl)styryl)-1H-indazol-6-yl)spiro[cyclopropane-1,3′-indolin]-2′-one 2,2,2-trifluoroacetate], the inhibition at 1 µM was less than 50%.

In turn, `COc1ccc2c(c1)[C@]1(C[C@H]1c1ccc3c(/C=C/c4csc(CN5CCOCC5)c4)n[nH]c3c1)C(=O)N2` [Example A183, (1R,2S)-5′-methoxy-2-(3-((E)-2-(5-(morpholinomethyl)thiophen-3-yl)vinyl)-1H-indazol-6-yl)spiro[cyclopropane-1,3′-indolin]-2′-one 2,2,2-trifluoroacetate] gave an inhibition at 1 µM of more than 50%.

`CCN1CCN(c2ccc(/C=C/c3n[nH]c4cc([C@@H]5C[C@@]56C(=O)Nc5ccc(OC)cc56)ccc34)cc2)CC1` [Example A187, (1R,2S)-(E)-2-(3-(4-(4-ethylpiperazin-1-yl)styryl)-1H-indazol-6-yl)-5′-methoxyspiro[cyclopropane-1,3′-indolin]-2′-one 2,2,2-trifluoroacetate] came in with an inhibition at 1 µM of more than 50%.

`COc1ccc2c(c1)[C@]1(C[C@H]1c1ccc3c(-c4ccc(N5CCN(CCO)CC5)cc4)n[nH]c3c1)C(=O)N2` [Example A191, (1R,2S)-2-(3-(4-(4-(2-hydroxyethyl)piperazin-1-yl)phenyl)-1H-indazol-6-yl)-5′-methoxyspiro[cyclopropane-1,3′-indolin]-2′-one 2,2,2-trifluoroacetate]: the inhibition at 1 µM was less than 50%.

With `COc1ccc2c(c1)[C@]1(C[C@H]1c1ccc3c(-c4ccc(N5CCN(C6CCCC6)CC5)cc4)n[nH]c3c1)C(=O)N2` [Example A192, (1R,2S)-2-(3-(4-(4-cyclopentylpiperazin-1-yl)phenyl)-1H-indazol-6-yl)-5′-methoxyspiro[cyclopropane-1,3′-indolin]-2′-one 2,2,2-trifluoroacetate], the inhibition at 1 µM was less than 50%.

The molecule `COc1ccc2c(c1)[C@]1(C[C@H]1c1ccc3c(-c4ccc(N5CCN(C6CCCCC6)CC5)cc4)n[nH]c3c1)C(=O)N2` [Example A193, (1R,2S)-2-(3-(4-(4-cyclohexylpiperazin-1-yl)phenyl)-1H-indazol-6-yl)-5′-methoxyspiro[cyclopropane-1,3′-indolin]-2′-one 2,2,2-trifluoroacetate] displayed an inhibition at 1 µM of less than 50%.

The molecule `COc1ccc2c(c1)[C@]1(C[C@H]1c1ccc3c(/C=C/c4ccc(OCCN5CCOCC5)cc4)n[nH]c3c1)C(=O)N2` [Example A194, (1R,2S)-(E)-5′-methoxy-2-(3-(4-(2-morpholinoethoxy)styryl)-1H-indazol-6-yl)spiro[cyclopropane-1,3′-indolin]-2′-one 2,2,2-trifluoroacetate] registered an inhibition at 1 µM of more than 50%.

In the case of `Cc1ccc2c(c1)[C@]1(C[C@H]1c1ccc3c(/C=C/c4ccc(CN5CCOCC5)cc4)n[nH]c3c1)C(=O)N2` [Example A195, (1R,2S)-(E)-5′-methyl-2-(3-(4-(morpholinomethyl)styryl)-1H-indazol-6-yl)spiro[cyclopropane-1,3′-indolin]-2′-one 2,2,2-trifluoroacetate], the inhibition at 1 µM is more than 50%.

In turn, `COc1ccc2c(c1)[C@]1(C[C@H]1c1ccc3c(/C=C/c4cccnc4)n[nH]c3c1)C(=O)N2` [Example A197, (1R,2S)-5′-methoxy-2-(3-((E)-2-(pyridin-3-yl)vinyl)-1H-indazol-6-yl)spiro[cyclopropane-1,3′-indolin]-2′-one] yielded an inhibition at 1 µM of more than 50%.

Regarding `COc1ccc2c(c1)[C@]1(C[C@H]1c1ccc3c(/C=C/c4ccc(CN5CCOCC5)c(F)c4)n[nH]c3c1)C(=O)N2` [Example A199, (1R,2S)-(E)-2-(3-(3-fluoro-4-(morpholinomethyl)styryl)-1H-indazol-6-yl)-S-methoxyspiro[cyclopropane-1,3′-indolin]-2′-one 2,2,2-trifluoroacetate], the inhibition at 1 µM was more than 50%.
